ChEMBL document CHEMBL1201862, “PubChem BioAssay data set” (2004)
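Cells were grown in 96-well plates and exposed to each compound for 48 hours at five concentrations; endpoints were interpolated linearly between bracketing concentrations, or set to the highest concentration if not reached. GI50 is the concentration that inhibits growth by half.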 Active and inactive are the calls of the source. Cut-off read from the data, not from the text of the source: active = GI50 up to about 1.1 µM and inactive = higher.

Assays:
Assay in all cases: inhibition of tumour cell growth, NCI panel, 48 h
SF-268 = test system: SF-268
Malme-3M = test system: Malme-3M
SK-OV-3 = test system: SK-OV-3
M14 = test system: M14
RPMI-8226 = test system: RPMI-8226
TK-10 = test system: TK-10
NCI-H226 = test system: NCI-H226
MOLT-4 = test system: MOLT-4
OVCAR-5 = test system: OVCAR-5
OVCAR-8 = test system: OVCAR-8
SW-620 = test system: SW-620
U-251 = test system: U-251
A498 = test system: A498
SK-MEL-5 = test system: SK-MEL-5
SN12C = test system: SN12C
RXF 393 = test system: RXF 393
A549 = test system: A549
CAKI-1 = test system: CAKI-1

Compound | GI50 (SF-268) | GI50 (Malme-3M) | GI50 (SK-OV-3) | GI50 (M14) | GI50 (RPMI-8226) | GI50 (TK-10) | GI50 (NCI-H226) | GI50 (MOLT-4) | GI50 (OVCAR-5) | GI50 (OVCAR-8) | GI50 (SW-620) | GI50 (U-251) | GI50 (A498) | GI50 (SK-MEL-5) | GI50 (SN12C) | GI50 (RXF 393) | GI50 (A549) | GI50 (CAKI-1)
C=CCCCn1ccc2ccccc21 | > 100 µM (inactive) | > 100 µM (inactive) | > 100 µM (inactive) | > 100 µM (inactive) | > 100 µM (inactive) | > 100 µM (inactive) | > 100 µM (inactive) | > 100 µM (inactive) | > 100 µM (inactive) | > 100 µM (inactive) | > 100 µM (inactive) | > 100 µM (inactive) | > 100 µM (inactive) | > 100 µM (inactive) | > 100 µM (inactive) | > 100 µM (inactive) | > 100 µM (inactive) | –
CC12C3CC4C5CC(C(C53)[C@@H]1NCc1ccccc1)C42 (stereo partly specified) | > 100 µM (inactive) | > 100 µM (inactive) | > 100 µM (inactive) | > 100 µM (inactive) | > 100 µM (inactive) | > 100 µM (inactive) | > 100 µM (inactive) | > 100 µM (inactive) | 86.9 µM (inactive) | > 100 µM (inactive) | > 100 µM (inactive) | 97.5 µM (inactive) | > 100 µM (inactive) | 31.5 µM (inactive) | > 100 µM (inactive) | 84.9 µM (inactive) | > 100 µM (inactive) | 79.8 µM (inactive)
CCOC(=O)CC[C@@H](NC(=O)c1ccc(N[C@@H]2c3cc4c(cc3C(c3cc(OC)c(O)c(OC)c3)C3C(=O)OC[C@@H]32)OCO4)cc1)C(=O)OCC (stereo partly specified) | 0.0208 µM (active) | 0.0995 µM (active) | 0.0144 µM (active) | 5.24 µM (inactive) | 0.0411 µM (active) | 0.11 µM (active) | – | 0.00194 µM (active) | 0.0652 µM (active) | 0.0251 µM (active) | 0.0396 µM (active) | 0.0175 µM (active) | 0.0129 µM (active) | 0.0247 µM (active) | 0.0256 µM (active) | – | 0.0222 µM (active) | 0.013 µM (active)
Cn1nc(-c2cccc(-c3nn(C)/c(=N\CCO)s3)n2)s/c1=N/CCO | > 100 µM (inactive) | – | – | > 100 µM (inactive) | 63 µM (inactive) | – | > 100 µM (inactive) | > 100 µM (inactive) | > 100 µM (inactive) | > 100 µM (inactive) | > 100 µM (inactive) | > 100 µM (inactive) | > 100 µM (inactive) | > 100 µM (inactive) | > 100 µM (inactive) | > 100 µM (inactive) | > 100 µM (inactive) | –
COc1ccc(/N=c2\ssc3c(=S)ssc23)cc1 | 35.7 µM (inactive) | 34.9 µM (inactive) | > 100 µM (inactive) | 20 µM (inactive) | 9.91 µM (inactive) | 57.9 µM (inactive) | > 100 µM (inactive) | 3.72 µM (inactive) | 30.2 µM (inactive) | 17 µM (inactive) | 15.3 µM (inactive) | 28.4 µM (inactive) | – | 19.4 µM (inactive) | 37.8 µM (inactive) | 21.2 µM (inactive) | 31.1 µM (inactive) | 91.4 µM (inactive)
Oc1cccc(-c2cccc(O)n2)n1 | – | > 100 µM (inactive) | > 100 µM (inactive) | > 100 µM (inactive) | > 100 µM (inactive) | > 100 µM (inactive) | > 100 µM (inactive) | > 100 µM (inactive) | – | > 100 µM (inactive) | > 100 µM (inactive) | > 100 µM (inactive) | – | > 100 µM (inactive) | > 100 µM (inactive) | > 100 µM (inactive) | > 100 µM (inactive) | > 100 µM (inactive)
COC1=NN2C(OC)(c3ccccc3)c3c(-c4ccccc4)sc(-c4ccccc4)c3C2(c2ccccc2)S1 (stereo unspecified) | > 100 µM (inactive) | > 100 µM (inactive) | > 100 µM (inactive) | > 10 µM (inactive) | – | > 100 µM (inactive) | – | > 100 µM (inactive) | > 100 µM (inactive) | > 100 µM (inactive) | > 100 µM (inactive) | > 100 µM (inactive) | > 100 µM (inactive) | – | > 100 µM (inactive) | – | > 100 µM (inactive) | > 100 µM (inactive)
CCCCCCCCOCC(O)CO (stereo unspecified) | > 100 µM (inactive) | > 100 µM (inactive) | > 100 µM (inactive) | > 100 µM (inactive) | 44.6 µM (inactive) | > 100 µM (inactive) | 84.9 µM (inactive) | 44.7 µM (inactive) | > 100 µM (inactive) | > 100 µM (inactive) | > 100 µM (inactive) | > 100 µM (inactive) | > 100 µM (inactive) | > 100 µM (inactive) | > 100 µM (inactive) | > 100 µM (inactive) | > 100 µM (inactive) | > 100 µM (inactive)
COc1cc2cnc3c4cc(OC)c(OC(C)C)cc4ccc3c2cc1OC | > 100 µM (inactive) | > 100 µM (inactive) | > 100 µM (inactive) | > 100 µM (inactive) | > 100 µM (inactive) | > 100 µM (inactive) | > 100 µM (inactive) | > 100 µM (inactive) | > 100 µM (inactive) | > 100 µM (inactive) | > 100 µM (inactive) | > 100 µM (inactive) | – | > 100 µM (inactive) | > 100 µM (inactive) | > 100 µM (inactive) | > 100 µM (inactive) | > 100 µM (inactive)
O=C(CC(O)(c1ccccc1)c1ccc(Cl)cc1)NC(=O)c1ccccc1O (stereo unspecified) | 7.28 µM (inactive) | 14.9 µM (inactive) | 17.1 µM (inactive) | 12.4 µM (inactive) | – | 13.2 µM (inactive) | 7.87 µM (inactive) | 10 µM (inactive) | 1.99 µM (inactive) | 4.54 µM (inactive) | 18.7 µM (inactive) | 3.38 µM (inactive) | 1.95 µM (inactive) | 6.52 µM (inactive) | 3.76 µM (inactive) | 11.7 µM (inactive) | 8.07 µM (inactive) | 3.95 µM (inactive)
O=c1c(Cl)c(Cl)cnn1CCc1ccncc1 | 20.6 µM (inactive) | 22 µM (inactive) | – | 16.7 µM (inactive) | 36.6 µM (inactive) | 47.5 µM (inactive) | 29.4 µM (inactive) | 82.6 µM (inactive) | 19.5 µM (inactive) | 22.1 µM (inactive) | 19.1 µM (inactive) | – | 21.6 µM (inactive) | 16.1 µM (inactive) | 18 µM (inactive) | 24.6 µM (inactive) | 37.9 µM (inactive) | 1.98 µM (inactive)
COC(=O)n1c(CBr)c(Br)c2ccccc21 | 25.6 µM (inactive) | 79.6 µM (inactive) | – | > 100 µM (inactive) | 21 µM (inactive) | 33.1 µM (inactive) | 13.1 µM (inactive) | 26.2 µM (inactive) | 30.6 µM (inactive) | 48.2 µM (inactive) | 47.2 µM (inactive) | 27 µM (inactive) | – | 51.5 µM (inactive) | – | – | 40.5 µM (inactive) | 23.8 µM (inactive)
CCCCCCCCCCCCCCCCCC(=O)OCC(C[As](=O)(O)O)OC(=O)CCCCCCCCCCCCCCCCC (stereo unspecified) | 43.2 µM (inactive) | 30.1 µM (inactive) | 18.2 µM (inactive) | > 100 µM (inactive) | 28.3 µM (inactive) | 33.4 µM (inactive) | 24.4 µM (inactive) | > 100 µM (inactive) | > 100 µM (inactive) | > 100 µM (inactive) | 16 µM (inactive) | 26 µM (inactive) | > 100 µM (inactive) | > 100 µM (inactive) | 50.1 µM (inactive) | 19.2 µM (inactive) | > 100 µM (inactive) | 65.5 µM (inactive)
Cc1ccc(NC(=O)/C(=N/NC(=O)CC#N)C2C(=O)N(c3ccccc3)N=C2N)cc1C (stereo unspecified) | > 100 µM (inactive) | > 100 µM (inactive) | > 100 µM (inactive) | > 100 µM (inactive) | > 100 µM (inactive) | > 100 µM (inactive) | > 100 µM (inactive) | > 100 µM (inactive) | > 100 µM (inactive) | > 100 µM (inactive) | > 100 µM (inactive) | > 100 µM (inactive) | > 100 µM (inactive) | > 100 µM (inactive) | > 100 µM (inactive) | > 100 µM (inactive) | > 100 µM (inactive) | > 100 µM (inactive)
C/C(=N/NS(=O)(=O)c1ccccc1)c1cccc[n+]1[O-] | > 100 µM (inactive) | – | > 100 µM (inactive) | > 100 µM (inactive) | > 100 µM (inactive) | > 100 µM (inactive) | – | > 100 µM (inactive) | > 100 µM (inactive) | > 100 µM (inactive) | > 100 µM (inactive) | > 100 µM (inactive) | > 100 µM (inactive) | > 100 µM (inactive) | > 100 µM (inactive) | – | > 100 µM (inactive) | > 100 µM (inactive)
CC(=O)OC1(Sc2ccccc2)CC2[C@H]3COC(C)(C)O[C@H]3CC[C@@]2(C)CC1=O (stereo partly specified) | – | 99.3 µM (inactive) | 44.2 µM (inactive) | 34.6 µM (inactive) | 21.1 µM (inactive) | > 100 µM (inactive) | 20.2 µM (inactive) | 9.95 µM (inactive) | > 100 µM (inactive) | 74.8 µM (inactive) | 52.4 µM (inactive) | > 10 µM (inactive) | – | 21.3 µM (inactive) | 23.4 µM (inactive) | 47.2 µM (inactive) | 43.2 µM (inactive) | 48.8 µM (inactive)
CC1O[C@@H]2CCCCC(=O)[C@]2(C)[C@H]1C (stereo partly specified) | – | > 100 µM (inactive) | > 100 µM (inactive) | > 100 µM (inactive) | > 100 µM (inactive) | > 100 µM (inactive) | > 100 µM (inactive) | > 100 µM (inactive) | > 100 µM (inactive) | > 100 µM (inactive) | > 100 µM (inactive) | > 100 µM (inactive) | – | > 100 µM (inactive) | > 100 µM (inactive) | 70.3 µM (inactive) | > 100 µM (inactive) | > 100 µM (inactive)
